Results taken from patent publication US20080207745A1, “Orally-absorbed formulation for paromomycin” (priority 2007, published 2008).
Values joined by “and” are separate entries in the source; they are usually repeats but may differ in a detail not shown here. Equal entries are not always repeated. Structures can show the parent of a compound that is named as a salt. Where two headings read alike, the source gives them in different places.

Assays:
[1] = In vitro PAR transport across harvested intestinal segments, EasyMount Ussing System: jejunum; type: in vitro ADME; conditions: rat; for Papp at 15 mg/ml: 15 mg/ml PAR
Protocol: HEPES buffer was used as the base mucosal and serosal fluid. […] First 5 ml of HEPES buffer was added to each of the two chambers (mucosal and serosal) and allowed to equilibrate for 20 min. […] Aliquots of sample solution were removed from the chamber on other side of the mounted intestinal segment periodically and replaced with an equal volume of fresh warm HEPES buffer. […] These additives, either alone or in combinations, were dissolved in HEPES buffer on percent weight/weight basis of the HEPES medium. Owing to the expected variation in the in-vitro conditions and harvested rat intestinal segments, four replicates were used per experimental condition. The apparent permeability coefficients (Papp) were calculated according to: Papp=(dQ/dt)/C0×A, where dQ/dt is the linear appearance rate of mass in receiver compartment, C0 is the initial solute concentration in donor compartment, and A is the surface area. […] The drug in post column eluant was derivatized with Dinitrofluorobenzene (DNFB) and monitored at 360 nm. The run time was 30 minutes.

[2] = In vitro PAR transport across harvested intestinal segments, EasyMount Ussing System: colon; type: in vitro ADME; conditions: rat, 5 mg/ml (~25 mg) paromomycin in mucosal chamber, tissue area 0.5 sq cm
Protocol: (§1) HEPES buffer was used as the base mucosal and serosal fluid. […] First 5 ml of HEPES buffer was added to each of the two chambers (mucosal and serosal) and allowed to equilibrate for 20 min. […] Aliquots of sample solution were removed from the chamber on other side of the mounted intestinal segment periodically and replaced with an equal volume of fresh warm HEPES buffer.
(§2) These additives, either alone or in combinations, were dissolved in HEPES buffer on percent weight/weight basis of the HEPES medium. Owing to the expected variation in the in-vitro conditions and harvested rat intestinal segments, four replicates were used per experimental condition.
(§3) The apparent permeability coefficients (Papp) were calculated according to:
(§4) Papp=(dQ/dt)/C0×A, where dQ/dt is the linear appearance rate of mass in receiver compartment, C0 is the initial solute concentration in donor compartment, and A is the surface area.
(§5) The drug in post column eluant was derivatized with Dinitrofluorobenzene (DNFB) and monitored at 360 nm. The run time was 30 minutes.

[3] = Paromomycin in vivo absorption (pharmacokinetic) studies in rats; parameters: species or system Male rats (Sprague Dawley)
Protocol: Paromomycin was extracted from plasma samples (100 μl volume) with phenylboronic acid solid phase extraction columns, and the bound drug was eluted from the columns with 1% (v/v) formic acid in water. The acid eluates were evaporated under vacuum, and then the dry residues were reconstituted in 100 μl of 1 mM heptafluorobutyric acid (HFBA) in water.

[4] = historically considered (ref. 6); cited from earlier work
[5] = In vitro PAR transport across harvested intestinal segments, EasyMount Ussing System: ileum; type: in vitro ADME; conditions: rat, 5 mg/ml (~25 mg) paromomycin in mucosal chamber, tissue area 0.5 sq cm
Protocol: as §1, §2, §3, §4, §5

[6] = In vitro PAR transport across harvested intestinal segments, EasyMount Ussing System: duodenum; type: in vitro ADME; conditions: rat, 5 mg/ml (~25 mg) paromomycin in mucosal chamber, tissue area 0.5 sq cm
Protocol: as §1, §2, §3, §4, §5

[7] = male rats, i.v. 100 mg/kg, Group #1, individual rats, 100 mg/kg
[8] = male, Sprague Dawley, rat, plasma, iv, 100 mg/kg, i.v. 100 mg/kg, Group #1, Mean of 3 rats

Papp at 15 mg/ml ([1]; jejunum M-to-S, Sodium Decanoate in mucosal 0.2 mg/ml (equilibrated 20 min before drug)): 1.48 ×10⁻⁶ cm/s
Papp at 15 mg/ml ([1]; jejunum M-to-S, Sodium Decanoate in mucosal 0.5 mg/ml (equilibrated)): 2.22 ×10⁻⁶ cm/s
Papp at 15 mg/ml ([1]; jejunum M-to-S, Sodium Decanoate in mucosal 1 mg/ml (equilibrated)): 4.4 ×10⁻⁶ cm/s
Papp at 15 mg/ml ([1]; jejunum M-to-S, Sodium Decanoate in mucosal 1 mg/ml (not equilibrated)): 3.83 ×10⁻⁶ cm/s
Papp at 15 mg/ml ([1]; jejunum M-to-S, Sodium Decanoate in serosal 0.2 mg/ml (not equilibrated)): 3.86 ×10⁻⁶ cm/s
Papp at 15 mg/ml ([1]; jejunum M-to-S, Sodium Decanoate in serosal 0.5 mg/ml (not equilibrated)): 3.54 ×10⁻⁶ cm/s
Papp at 15 mg/ml ([1]; jejunum M-to-S, Sodium Decanoate in serosal 1.0 mg/ml (not equilibrated)): 7.2 ×10⁻⁶ cm/s
Papp at 15 mg/ml ([1]; jejunum M-to-S, no Quinidine, no Sodium Decanoate, tissue area 0.5 sq cm): 2.63 ×10⁻⁶ cm/s
Papp at 15 mg/ml ([1]; jejunum S-to-M, no Quinidine): 2.75 ×10⁻⁶ cm/s
Papp at […], 5 mg/ml ([1]; jejunum, 5 mg/ml (~25 mg) paromomycin in mucosal chamber, tissue area 0.5 sq cm): 3.93 ×10⁻⁶ cm/s
Papp at 15 mg/ml ([1]; with quinidine 0.05 mg/ml in mucosal chamber, jejunum M-to-S, 0.05 mg/ml Quinidine in mucosal): 4.37 ×10⁻⁶ cm/s
Papp at 15 mg/ml ([1]; with quinidine 0.05 mg/ml in mucosal chamber, jejunum S-to-M, 0.05 mg/ml Quinidine in mucosal): 1.85 ×10⁻⁶ cm/s
Papp at […], 5 mg/ml [2]: 2.07 ×10⁻⁶ cm/s
t1/2 ([3]; male rats, i.v. 100 mg/kg in sterile saline, Group #1, individual rats, 100 mg/kg): 2.70 h and 2.86 h
V ([3]; male rats, i.v. 100 mg/kg, Group #1, Mean of 3 rats): 5.40 L/kg
AUC [3, 7]: 55465 ng·h/mL and 85847 ng·h/mL
Cl [3, 7]: 30 mL/min/kg and 19.3 mL/min/kg
Cmax [3, 7]: 95.651 µg/mL and 101.318 µg/mL
V [3, 7]: 4.39 L/kg and 7.01 L/kg and 4.80 L/kg
half-life ([3]; male, Sprague Dawley, rat, plasma, iv, 100 mg/kg, i.v. 100 mg/kg in sterile saline, Group #1, individual rats): 2.85 h
clearance [3, 8]: 22.3 mL/min/kg
half-life [3, 8]: 2.8 h
AUC ([3]; male, Sprague Dawley, rat, plasma, iv, 100 mg/kg, i.v. 100 mg/kg, Group #1, Mean of 3 rats, read-out: AUC): 78300 ng·h/mL
Cmax ([3]; male, Sprague Dawley, rat, plasma, iv, 100 mg/kg, i.v. 100 mg/kg, Group #1, Mean of 3 rats, read-out: Cmax): 124 µg/mL
clearance ([3]; male, Sprague Dawley, rat, plasma, iv, 100 mg/kg, i.v. 100 mg/kg, Group #1, individual rats): 17.8 mL/min/kg
AUC ([3]; male, Sprague Dawley, rat, plasma, iv, 100 mg/kg, i.v. 100 mg/kg, Group #1, individual rats, read-out: AUC): 93500 ng·h/mL
Cmax ([3]; male, Sprague Dawley, rat, plasma, iv, 100 mg/kg, i.v. 100 mg/kg, Group #1, individual rats, read-out: Cmax): 174 µg/mL
Papp at […], 5 mg/ml [5]: 2.22 ×10⁻⁶ cm/s
Papp at […], 5 mg/ml [6]: 1.94 ×10⁻⁶ cm/s
SMILES: NC[C@@H]1O[C@H](O[C@H]2[C@@H](O)[C@H](O[C@@H]3[C@@H](O)[C@H](N)C[C@H](N)[C@H]3O[C@H]3O[C@H](CO)[C@@H](O)[C@H](O)[C@H]3N)O[C@@H]2CO)[C@H](N)[C@@H](O)[C@@H]1O [PAR, Paromomycin sulfate]
oral bioavailability [4]: close to zero
